Experimental data: US20150157584A1, “INHIBITORS OF HIPPO-YAP SIGNALING PATHWAY” (The Regents of the University of California, priority 2012, published 2015)
Where two headings read alike, the source gives them in different places.

Assays:
YAP/TAZ [1] = test: immunoblotting / phos-tag gels of YAP/TAZ phosphorylation in cultured cell lines; type: cell-based, human; settings: for YAP/TAZ dephosphorylation, time course: 1 μM for indicated times; for YAP dephosphorylation, different doses: different doses of LPA, S1P, LPC or PA for 1 h
Description: Immunoblotting was performed using standard protocol. […] The phos-tag reagents were purchased from Wako Chemicals, and gels containing phos-tag were prepared according to manufacture's instructions. YAP proteins can be separated into multiple bands in the presence of phos-tag depending on differential phosphorylation levels, with phosphorylated proteins run migrate slower.
(§1) Immunoblotting was performed using standard protocol. Antibodies for pYAP (S127), YAP, TAZ (V386), pCREB, CREB, pMLC2 (S19), pMLC2 (T18/S19), MST1, MST2, and Lats1 were from Cell Signaling Technology. Lats2 antibody was from Bethyl laboratories. HA-HRP, GFP, and MLC2 antibodies were from Santa Cruz biotechnology. Tubulin, HSP90 and Flag-HRP were purchased from Sigma Aldrich. PKA antibody was obtained from BD biosciences. GAPDH antibody was a gift from Dr. Yan Luo. Yki antibody was a gift from Dr. Kenneth Irvine. The phos-tag reagents were purchased from Wako Chemicals, and gels containing phos-tag and MnC12 were prepared according to manufacturer's instructions. YAP proteins can be separated into multiple bands on phos-tag gels, with the phosphorylated form of YAP proteins migrating at a slower speed.

YAP [2] = test: immunofluorescence staining of YAP subcellular localization; type: cell-based, human
Description: HEK293A or MCF10A cells were seeded on coverslips. After treatment, cells were fixed with 4% paraformaldehyde-PBS for 15 min and permeabilized with 0.1% Triton X-100 in TBS. After blocking in 3% FBS in PBS for 30 min, cells were incubated with primary antibodies overnight at 4° C. After three washes with PBS, cells were incubated with Alexa Fluor 488- or 555-conjugated secondary antibodies (Invitrogen, 1:1000 dilution) for 2 h at room temperature. Slides were then washed three times and mounted. Immunofluorescence was detected using Olympus confocal microscopy. Primary antibodies used were: YAP (H-125) and YAP (63.7) from Santa Cruz, HA from Covance, β-catenin from BD biosciences. Phalloidin alexa 488 was used to stain actin filaments. For paraffin-embedded tissues from control or LPA receptor transgenic mammary glands, 5 μm sections were prepared and subjected for immunostaining Following deparaffinization and hydration, slides were heated in sub-boiling buffer (10 mM sodium citrate, pH 6.0) for 15 min for antigen retrieval. TAZ antibody (H-70) from Santa Cruz was used to as primary antibody.

Lats1 [3] = test: Lats1 immunoprecipitation kinase assay with GST-YAP substrate; type: cell-based, human
Description: Cells were lysed using mild lysis buffer (50 mM HEPES at pH 7.5, 150 mM NaCl, 1 mM EDTA, 1% NP-40, 10 mM pyrophosphate, 10 mM glycerophosphate, 50 mM NaF, 1.5 mM Na3VO4, protease inhibitor cocktail [Roche], 1 mM PMSF). Cell lysates were cleared and used for immunoprecipitation. Lats1 antibody (Cell Signaling Technology) was mixed with cell lysates for 1 hr at 4° C., and then protein A agarose beads were added in for 1 hr. After four washes with lysis buffer, beads were washed once with wash buffer (40 mM HEPES, 200 mM NaCl) and once with kinase assay buffer (30 mM HEPES, 50 mM potassium acetate, 5 mM MgCl2). The immunoprecipitated Lats1 was then subjected to a kinase assay in the presence of 500 μM cold ATP, 10 μCi [γ-32P] ATP, and 1 μg of GST-YAP expressed and purified from Escherichia coli as substrate. The reaction mixtures were incubated for 30 min at 30° C., terminated with SDS sample buffer, and subjected to SDS-PAGE and immunoblotting.

CREB = CREB phosphorylation by immunoblotting; type: cell-based, human
Description: (§2) Immunoblotting was performed using standard protocol. Antibodies for pYAP (S127), pYAP(S381/384), pMST1/2, TAZ, pERK, ERK1/2, Lats1, MST1, pAKT (S473), pS6K, S6K were from Cell Signaling, antibodies for YAP (H-125), CTGF, Cyr61, Gq/11, G13 and 14-3-3θ were from Santa Cruz, TEAD1 antibody was from BD biosciences, pTAZ (S89) antibody was in-house raised, GAPDH antibody was a gift from Dr. Yan Luo. The phos-tag reagents were purchased from Wako Chemicals, and gels containing phos-tag were prepared according to manufacture's instructions. YAP proteins can be separated into multiple bands in the presence of phos-tag depending on differential phosphorylation levels, with phosphorylated proteins run migrate slower.
as §1, with “YAP proteins can be separated into multiple bands on phos-tag gels, with the phosphorylated form of YAP proteins migrating at a slower speed.” left out

YAP [4] = settings: mouse, in vivo, ip
Description: A protocol for epinephrine intraperitoneal (IP) injection in mice was approved by UCSD Institutional Animal Care and Use Committee. Fed male mice at 12 weeks of age were anesthetized. Control animals received an IP injection of propranolol (4 mg/100 g body weight) for 15 min. The test animals IP injected with epinephrine (75 μg/100 g body weight) for 15 min. […] The mice were sacrificed rapidly by cervical dislocation and the heart was harvested and immediately frozen in liquid nitrogen. Samples were stored at −80° C. until use. Frozen tissues were pulverized in liquid nitrogen. All of the subsequent steps were performed at 4° C. Powdered tissue samples were homogenized in 10 volumes (weight/volume) of buffer containing 50 mM Tris-HCl pH 7.6, 10 mM EDTA, 2 mM EGTA, 100 mM NaF, Protease inhibitor cocktail (1 mM Pefabloc, 1 mM benzamidine HCl, 1 μM leupeptin, and 1 μM E64), 1 mM PMSF, 0.2% Tritonx 100, 1 mM Na3VO4, 20 mM beta-glycerophosphate, 1 mM sodium pyrophosphate, and 50 nM calyculin A, using a tissue tearor. Homogenates were then centrifuged at 3,800 g for 10 min twice, and approximately 10 μg of protein, determined by Bradford, of the resultant supernatants were used for Western blot analysis.

YAP/TAZ [5] = test: immunoblotting of YAP/TAZ phosphorylation in mouse cells (primary hepatocytes, 3T3-L1); type: cell-based; settings: for TAZ protein level / YAP phosphorylation: 3T3-L1, 10 μM forskolin, 100 μM IBMX or 5 μM KT5720, 1 hr
Description: as §2, §1

3T3-L1 cells = test: adipogenesis of 3T3-L1 cells (oil red staining); type: cell-based, mouse; settings: 3T3-L1 with insulin, dexamethasone, troglitazone; IBMX 250 μM; KT5720 5 μM
Description: Adipogenesis. Murine 3T3-L1 cells were maintained in DMEM medium containing 10% calf serum (Hyclone). To initiate adipocyte differentiation, confluent 3T3-L1 cells switched into FBS containing DMEM medium; in addition, insulin, dexamethasone, troglitazone (Tro) were added; in selected samples, IBMX (250 μM) or forskolin (100 μM) were used to increase cAMP and PKA activity. For experiments using KT5720, 3T3-L1 cells were pre-treated with KT5720 (5 μM) overnight in advance and fresh KT5720 was added when adipogenesis was initiated. Two days later, medium was changed into DMEM containing 10% FBS and insulin. And after another two days, cells were incubated in DMEM with FBS. Cells were typically harvested on day 6 depending on the formation and maturation of lipid droplets. Cells were then subjected to RNA extraction or oil red (Sigma Aldrich) staining according to manufacturer's instructions.

CTGF = test: expression of YAP/TAZ target gene CTGF; type: cell-based, human; settings: HEK293A
Description: as §2
Following various treatments, cells were washed with cold phosphate-buffered saline and subjected to RNA extraction using an RNeasy Plus mini kit (Qiagen). […] Complementary DNA was then diluted and used for quantification (with β-actin gene as a control) by real-time PCR, which was performed using KAPA SYBR FAST qPCR master mix (Kapa Biosystems) and the 7300 real-time PCR system (Applied Biosystems). […]
RNA extraction, reverse transcription and real-time PCR. […] After dilution, cDNA levels were quantified by real-time PCR using KAPA SYBR FAST qPCR master mix (Kapa Biosystems) and the 7300 real-time PCR system (Applied Biosystems). […]

YAP [6] = test: YAP immunoprecipitation with TEAD1 and 14-3-3; type: cell-based, human; settings: HEK293A
Description: (§3) Cells were lysed using mild lysis buffer (50 mM HEPES at pH 7.5, 150 mM NaCl, 1 mM EDTA, 1% NP-40, 10 mM pyrophosphate, 10 mM glycerophosphate, 50 mM NaF, 1.5 mM Na3VO4, protease inhibitor cocktail [Roche], 1 mM PMSF). Cell lysates were centrifuged for 10 min at 4° C., and supernatants were used for immunoprecipitation. YAP (Bethyl Laboratories) antibody was mixed with the supernatant for 1 h, and protein A-agarose beads were added in for 1 h. Immunoprecipitates were washed four times with lysis buffer, and proteins were eluted with SDS-PAGE sample buffer. For kinase assay, MST1, Lats1 or HA-Lats2 was immunoprecipitated similarly using MST1, Lats1 (Cell Signaling) or HA (Covance) antibodies.

HEK293A cells = test: cell proliferation assay, HEK293A; type: cell-based, human; settings: 10 μM LPA, replenished every day
Description: HEK293A cells (expressing control shRNA or YAP/TAZ shRNA, 2×10^5) in serum-free media were maintained in the presence or absence of 10 μM LPA for 1, 2 or 3 day. Cell numbers were determined daily using a cell counter (Bio-Rad). LPA was replenished every day.

Mst1/2 = test: Mst kinase activity and phosphorylation in treated cells; type: cell-based, human
Description: Following immunoprecipitation, protein beads were washed once with wash buffer (40 mM HEPES, 200 mM NaCl) and once with kinase assay buffer (30 mM HEPES, 50 mM potassium acetate, 5 mM MgCl2). The immunoprecipitated Mst1 was subjected to a kinase assay in the presence of 500 μM cold ATP, 10 μCi [γ-^32P] ATP, and 1 μg of GST-Mob expressed and purified from Escherichia coli as substrate. The reaction mixtures were incubated for 30 min at 30° C., terminated with SDS sample buffer, and subjected to SDS-PAGE and autoradiography. Lats1 or HA-Lats2 kinase assays were performed similarly but using GST-YAP as substrates in the absence of [γ-^32P] ATP. The phosphorylation of GST-YAP at S127 was determined by immunoblotting using pYAP antibody.

Lats1 [7] = test: Lats1 phosphorylation (S909, T1079) by immunoblotting; type: cell-based, human; settings: HEK293A; LPA 1 μM, 1 h
Description: as §3
as §2, with “YAP proteins can be separated into multiple bands in the presence of phos-tag depending on differential phosphorylation levels, with phosphorylated proteins run migrate slower.” left out

**Q.** Which results are given for `CNC[C@H](O)c1ccc(O)c(O)c1` [epinephrine]?
**A.** YAP phosphorylation (Ser127, phos-tag), time course (YAP/TAZ [1]): transiently increased; mutual effect of epinephrine and LPA on YAP phosphorylation (YAP/TAZ [1]): antagonized each other's effect; phosphorylation of YAP (YAP/TAZ [1]): dose-dependent phosphorylation; YAP localization (immunofluorescence) (YAP [2]): accumulation of cytoplasmic YAP; Lats1 activity (Lats1 [3]): increased; phosphorylation of CREB (CREB): increased; phosphorylation of CREB, time course (CREB): transient induction; YAP phosphorylation in heart (YAP [4]): significantly increased

**Q.** How did the YAP phosphorylation (YAP/TAZ [1]; MDA-MB-231, KT5720 5 μM) turn out when `CCCCCCOC(=O)[C@]1(O)C[C@@H]2O[C@@]1(C)n1c3ccccc3c3c4c(c5c6ccccc6n2c5c31)C(=O)NC4` [KT5720] was run?
**A.** Its YAP phosphorylation is “decreased”.

**Q.** What about the “effect on forskolin- and epinephrine-induced YAP phosphorylation” value (YAP/TAZ [1]; MDA-MB-231, KT5720 5 μM 30 min, then 10 μM epinephrine or forskolin 1 hr) of the same compound?
**A.** The value was “largely blocked”.

**Q.** What about the TAZ protein level (YAP/TAZ [5]) of the same compound?
**A.** The TAZ protein level was “increased”.

**Q.** And the YAP phosphorylation (YAP/TAZ [5])?
**A.** Its YAP phosphorylation is “repressed”.

**Q.** What about the “effect on glucagon-induced YAP phosphorylation” value (YAP/TAZ [5]; primary hepatocytes isolated from mice, KT5720) of the same compound?
**A.** The value was “abolished”.

**Q.** And the adipogenesis (3T3-L1 cells)?
**A.** Its adipogenesis is “inhibited”.

**Q.** Which “YAP/TAZ dephosphorylation, time course” value (YAP/TAZ [1]; HEK293A) does the source give for `CCCCCCCCCCCCC/C=C/[C@@H](O)[C@@H](N)COP(=O)(O)O` [S1P, sphingosine 1-phosphate] here?
**A.** The value was “potently induced YAP/TAZ dephosphorylation”.

**Q.** What about the “YAP dephosphorylation, different doses” value (YAP/TAZ [1]; HEK293A) of the same compound?
**A.** Its value is “potently induced”.

**Q.** What about the “expression of CTGF” value (CTGF) of the same compound?
**A.** Its value is “induced”.

**Q.** Which “YAP phosphorylation by PDE inhibitors” value (YAP/TAZ [1]; MDA-MB-231, ibudilast 100 μM, IBMX 100 μM, rolipram 50 μM, theophylline 1 mM, 1 hr) does the source give for `CC(C)Cn1c(=O)n(C)c(=O)c2[nH]cnc21` [IBMX] here?
**A.** The value was “induced YAP phosphorylation”.

**Q.** And the TAZ protein level (YAP/TAZ [5])?
**A.** The TAZ protein level was “decreased”.

**Q.** What about the YAP phosphorylation (YAP/TAZ [5]) of the same compound?
**A.** The YAP phosphorylation was “induced”.

**Q.** What about the adipogenesis (3T3-L1 cells) of the same compound?
**A.** The adipogenesis was “induced”.

**Q.** Which “phosphorylation of YAP S381/384” value (YAP/TAZ [1]; HEK293A transfected with GFP-YAP, LPA 1 h) does the source give for lysophosphatidic acid [LPA] here?
**A.** The value was “decreased”.

**Q.** What about the “YAP/TAZ dephosphorylation, time course” value (YAP/TAZ [1]; HEK293A) of the same compound?
**A.** The value was “rapid YAP/TAZ dephosphorylation”.

**Q.** And the “dephosphorylation of YAP/TAZ by phospholipids” value (YAP/TAZ [1]; HEK293A, 100 μM lipid)?
**A.** The value was “strongly induced dephosphorylation”.

**Q.** And the “concentration inducing complete YAP/TAZ dephosphorylation” value (YAP/TAZ [1]; HEK293A, 1 h)?
**A.** Its value is 0.1 µM.

**Q.** What about the “concentration inducing partial YAP/TAZ dephosphorylation” value (YAP/TAZ [1]; HEK293A, 1 h) of the same compound?
**A.** The value was 0.01 µM.

**Q.** What about the “YAP dephosphorylation, different doses” value (YAP/TAZ [1]; HEK293A) of the same compound?
**A.** Its value is “potently induced”.

**Q.** What about the “mutual effect of epinephrine and LPA on YAP phosphorylation” value (YAP/TAZ [1]; serum-starved U2OS, LPA, epinephrine or both, 1 h) of the same compound?
**A.** The value was “antagonized each other's effect”.

**Q.** And the YAP nuclear localization (YAP [2]; HEK293A and MCF10A, 1 μM, 1 h)?
**A.** The YAP nuclear localization was “induced YAP nuclear localization”.

**Q.** And the “time after LPA withdrawal at which YAP redistributed into cytoplasm” value (YAP [2]; MCF10A)?
**A.** Its value is 30 min.

**Q.** What about the YAP-14-3-3 interaction (YAP [6]) of the same compound?
**A.** Its YAP-14-3-3 interaction is “attenuated”.

**Q.** What about the “interaction between YAP and TEAD1” value (YAP [6]) of the same compound?
**A.** Its value is “enhanced”.

**Q.** And the “expression of CTGF” value (CTGF)?
**A.** The value was “induced”.

**Q.** And the “cell proliferation in serum free medium” value (HEK293A cells)?
**A.** Its value is “strongly induced cell proliferation”.

**Q.** And the “phosphorylation of MST2 at T180” value (Mst1/2; HEK293A with Flag-MST2, LPA 0.2 or 1 μM, 1 h)?
**A.** The value was “not changed”.

**Q.** And the Mst1 kinase activity (Mst1/2; HEK293A, FBS 1% or LPA 1 μM, GST-Mob substrate)?
**A.** Its Mst1 kinase activity is “no detectable effect”.

**Q.** And the Lats1 kinase activity (Lats1 [3]; HEK293A, serum or LPA)?
**A.** Its Lats1 kinase activity is “rapidly inhibited”.

**Q.** And the “phosphorylation of Lats1 at S909 and T1079” value (Lats1 [7])?
**A.** The value was “decreased”.
